Experiments:
Assay in all cases: Weeding effect in post-emergence stage (greenhouse pot spray)
Assay type in all cases: in vivo
Amaranthus retroflexus = conditions: Table 2, dose 500 g a.i./ha
Text: (§1) The activity level criteria for plant damage (i.e., growth control rate) are as follows:
(§2) The above growth control rates are fresh weight control rates.
(§3) Experiment on weeding effect in post-emergence stage: monocotyledonous and dicotyledonous weed seeds (Descurainia sophia, Capsella bursa-pastoris, Abutilon theophrasti, Galium aparine, Stellaria media, Lithospermum arvense, rorippa indica, Alopecurus aequalis, Beckmannia syzigachne, Sclerochloa dura, Phleum paniculatum, Bromus japonicus, Aegilops tauschii, Phalaris arundinacea, Amaranthus retroflexus, Chenopodiaceae, Commelina communis, Sonchus arvensis, convolvulus arvensis, Cirsium setosum, Solanum nigrum, Acalypha australis, Digitaria sanguinalis, Echinochloa crusgalli, Setaria viridis, Setaria glauca, Leptochloa chinensis, Monochoria vaginalis, Sagittaria trifolia, Scirpus juncoides, Cyperus rotundus, Cyperus iria, Cyperus difformis, Fimbristylis, Portulaca oleracea, Xanthium sibiricum, Pharbitis nil) and major crop seeds (wheat, corn, rice, soybean, cotton, oilseed rape, millet, sorghum, potato, sesame, ricinus) were placed in plastic pots filled with soil, then covered with 0.5-2 cm of soil, allowed to grow in a good greenhouse environment. After 2 weeks of sowing, the test plants were treated in the 2 to 3 leaf stage. The tested compounds of the present invention were respectively dissolved in acetone, then added with Tween 80 and 1.5 liter/ha of emulsifiable concentrate of methyl oleate as synergist, diluted with a certain amount of water to obtain a solution with a certain concentration, and sprayed with a spray tower onto the plants. After the application, the plants were cultured for 3 weeks in the greenhouse, and then the experimental results of the weeding were counted. The doses of the used compounds were 500, 250, 125, 60, 15 g a.i./ha, and the averages were obtained by repeating for three times.

Digitaria sanguinalis = system: Digitaria sanguinalis
Text: as §1, §2
as §3, with “The doses of the used compounds were 500, 250, 125, 60, 15 g a.i./ha, and the averages were obtained by repeating for three times.” left out

Echinochloa crusgalli = system: Echinochloa crusgalli
Text: as §1, §2
as §3, with “The doses of the used compounds were 500, 250, 125, 60, 15 g a.i./ha, and the averages were obtained by repeating for three times.” left out

Abutilon theophrasti = conditions: Table 3, dose 60 g a.i./ha
Text: as §1, §2
as §3, with “The doses of the used compounds were 500, 250, 125, 60, 15 g a.i./ha, and the averages were obtained by repeating for three times.” left out

Setaria viridis = system: Setaria viridis
Text: as §1, §2
as §3, with “The doses of the used compounds were 500, 250, 125, 60, 15 g a.i./ha, and the averages were obtained by repeating for three times.” left out

SMILES: C=CCSc1c(C(F)(F)F)ccc(C(=O)Nc2nnc(C)o2)c1F [Compound 1-40]
- Amaranthus retroflexus (activity level) (Amaranthus retroflexus): 5 (Level 5: growth control rate is above 85%)
- Digitaria sanguinalis (activity level) (Digitaria sanguinalis; Table 2, dose 500 g a.i./ha): 5 (Level 5: growth control rate is above 85%)
- Echinochloa crusgah (activity level) (Echinochloa crusgalli; Table 2, dose 500 g a.i./ha): 5 (Level 5: growth control rate is above 85%)

SMILES: CCC(C)[S+]([O-])c1c(C(F)(F)F)ccc(C(=O)Nc2nnc(C)o2)c1F (mixture of isomers) [Compound 1-17]
- Digitaria sanguinahs (activity level) (Digitaria sanguinalis; Table 3, dose 60 g a.i./ha): 5 (Level 5: growth control rate is above 85%)
- Abutilon theophrasti (activity level) (Abutilon theophrasti): 5 (Level 5: growth control rate is above 85%)
- Setaria viridis (activity level) (Setaria viridis; Table 3, dose 60 g a.i./ha): 5 (Level 5: growth control rate is above 85%)

SMILES: C/C=C/C[S@@+]([O-])c1c(C(F)(F)F)ccc(C(=O)Nc2nnc(C)o2)c1F [1-398 (R-configuration)]
- Digitaria sanguinahs (activity level) (Digitaria sanguinalis; Table 3, dose 250 g a.i./ha): 5 (Level 5: growth control rate is above 85%)
- Echinochloa crusgali (activity level) (Echinochloa crusgalli; Table 3, dose 250 g a.i./ha): 5 (Level 5: growth control rate is above 85%)
- Setaria viridis (activity level) (Setaria viridis; Table 3, dose 250 g a.i./ha): 5 (Level 5: growth control rate is above 85%)

SMILES: Cc1nnc(NC(=O)c2ccc(C(F)(F)F)c([S@@+]([O-])CCC3CC3)c2F)o1 [1-395 (R-configuration)]
- Digitaria sanguinahs (activity level) (Digitaria sanguinalis; Table 3, dose 500 g a.i./ha): 5 (Level 5: growth control rate is above 85%)
- Echinochloa crusgali (activity level) (Echinochloa crusgalli; Table 3, dose 500 g a.i./ha): 5 (Level 5: growth control rate is above 85%)
- Setaria viridis (activity level) (Setaria viridis; Table 3, dose 500 g a.i./ha): 5 (Level 5: growth control rate is above 85%)

SMILES: Cc1nnc(NC(=O)c2ccc(C(F)(F)F)c([S@+]([O-])CCCO)c2F)o1 [1-430 (R-configuration)]
- Digitaria sanguinahs (activity level) (Digitaria sanguinalis; Table 3, dose 500 g a.i./ha): 5 (Level 5: growth control rate is above 85%)
- Echinochloa crusgali (activity level) (Echinochloa crusgalli; Table 3, dose 500 g a.i./ha): 5 (Level 5: growth control rate is above 85%)
- Setaria viridis (activity level) (Setaria viridis; Table 3, dose 500 g a.i./ha): 5 (Level 5: growth control rate is above 85%)

SMILES: CCC[S@@+]([O-])c1c(C(F)(F)F)ccc(C(=O)Nc2nnco2)c1F [3-8 (R-configuration)]
- Digitaria sanguinahs (activity level) (Digitaria sanguinalis; Table 3, dose 60 g a.i./ha): 5 (Level 5: growth control rate is above 85%)
- Echinochloa crusgali (activity level) (Echinochloa crusgalli; Table 3, dose 60 g a.i./ha): 5 (Level 5: growth control rate is above 85%)
- Setaria viridis (activity level) (Setaria viridis; Table 3, dose 60 g a.i./ha): 5 (Level 5: growth control rate is above 85%)

SMILES: C#CCC[S@@+]([O-])c1c(C(F)(F)F)ccc(C(=O)Nc2nnc(C)o2)c1F [1-401 (R-configuration)]
- Digitaria sanguinahs (activity level) (Digitaria sanguinalis; Table 3, dose 500 g a.i./ha): 5 (Level 5: growth control rate is above 85%)
- Echinochloa crusgali (activity level) (Echinochloa crusgalli; Table 3, dose 500 g a.i./ha): 5 (Level 5: growth control rate is above 85%)
- Setaria viridis (activity level) (Setaria viridis; Table 3, dose 500 g a.i./ha): 5 (Level 5: growth control rate is above 85%)

SMILES: Cc1nnc(NC(=O)c2ccc(C(F)(F)F)c([S@@+]([O-])CCO)c2F)o1 [1-429 (R-configuration)]
- Digitaria sanguinahs (activity level) (Digitaria sanguinalis; Table 3, dose 500 g a.i./ha): 5 (Level 5: growth control rate is above 85%)
- Echinochloa crusgali (activity level) (Echinochloa crusgalli; Table 3, dose 500 g a.i./ha): 5 (Level 5: growth control rate is above 85%)
- Setaria viridis (activity level) (Setaria viridis; Table 3, dose 500 g a.i./ha): 5 (Level 5: growth control rate is above 85%)

SMILES: Cc1nnc(NC(=O)c2ccc(C(F)(F)F)c([S@+](C)[O-])c2F)o1 [1-2 (R-configuration)]
- Digitaria sanguinahs (activity level) (Digitaria sanguinalis; Table 3, dose 7.5 g a.i./ha): 0 (Level 0: growth control rate is less than 5%)
- Digitaria sanguinahs (activity level) (Digitaria sanguinalis; Table 3, dose 15 g a.i./ha): 1 (Level 1: growth control rate is greater than or equal to 5% and less than 20%)
- Digitaria sanguinahs (activity level) (Digitaria sanguinalis; Table 3, dose 30 g a.i./ha): 3 (Level 3: growth control rate is greater than or equal to 40% and less than 60%)
- Digitaria sanguinahs (activity level) (Digitaria sanguinalis; Table 3, dose 60 g a.i./ha): 4 (Level 4: growth control rate is greater than or equal to 60% and less than 85%)
- Echinochloa crusgali (activity level) (Echinochloa crusgalli; Table 3, dose 7.5 g a.i./ha): 0 (Level 0: growth control rate is less than 5%)
- Echinochloa crusgali (activity level) (Echinochloa crusgalli; Table 3, dose 15 g a.i./ha): 1 (Level 1: growth control rate is greater than or equal to 5% and less than 20%)
- Echinochloa crusgali (activity level) (Echinochloa crusgalli; Table 3, dose 30 g a.i./ha): 3 (Level 3: growth control rate is greater than or equal to 40% and less than 60%)
- Echinochloa crusgali (activity level) (Echinochloa crusgalli; Table 3, dose 60 g a.i./ha): 4 (Level 4: growth control rate is greater than or equal to 60% and less than 85%)
- Setaria viridis (activity level) (Setaria viridis; Table 3, dose 7.5 g a.i./ha): 0 (Level 0: growth control rate is less than 5%)
- Setaria viridis (activity level) (Setaria viridis; Table 3, dose 15 g a.i./ha): 2 (Level 2: growth control rate is greater than or equal to 20% and less than 40%)
- Setaria viridis (activity level) (Setaria viridis; Table 3, dose 30 g a.i./ha): 3 (Level 3: growth control rate is greater than or equal to 40% and less than 60%)
- Setaria viridis (activity level) (Setaria viridis; Table 3, dose 60 g a.i./ha): 3 (Level 3: growth control rate is greater than or equal to 40% and less than 60%)

SMILES: CC[S@+]([O-])c1c(C(F)(F)F)ccc(C(=O)Nc2nnc(C)o2)c1F [1-5 (R-configuration)]
- Digitaria sanguinahs (activity level) (Digitaria sanguinalis; Table 3, dose 3.75 g a.i./ha): 3 (Level 3: growth control rate is greater than or equal to 40% and less than 60%)
- Digitaria sanguinahs (activity level) (Digitaria sanguinalis; Table 3, dose 7.5 g a.i./ha): 4 (Level 4: growth control rate is greater than or equal to 60% and less than 85%)
- Digitaria sanguinahs (activity level) (Digitaria sanguinalis; Table 3, dose 15 g a.i./ha): 5 (Level 5: growth control rate is above 85%)
- Digitaria sanguinahs (activity level) (Digitaria sanguinalis; Table 3, dose 30 g a.i./ha): 5 (Level 5: growth control rate is above 85%)
- Digitaria sanguinahs (activity level) (Digitaria sanguinalis; Table 3, dose 60 g a.i./ha): 5 (Level 5: growth control rate is above 85%)
- Echinochloa crusgali (activity level) (Echinochloa crusgalli; Table 3, dose 3.75 g a.i./ha): 4 (Level 4: growth control rate is greater than or equal to 60% and less than 85%)
- Echinochloa crusgali (activity level) (Echinochloa crusgalli; Table 3, dose 7.5 g a.i./ha): 5 (Level 5: growth control rate is above 85%)
- Echinochloa crusgali (activity level) (Echinochloa crusgalli; Table 3, dose 15 g a.i./ha): 5 (Level 5: growth control rate is above 85%)
- Echinochloa crusgali (activity level) (Echinochloa crusgalli; Table 3, dose 30 g a.i./ha): 5 (Level 5: growth control rate is above 85%)
- Echinochloa crusgali (activity level) (Echinochloa crusgalli; Table 3, dose 60 g a.i./ha): 5 (Level 5: growth control rate is above 85%)
- Setaria viridis (activity level) (Setaria viridis; Table 3, dose 3.75 g a.i./ha): 3 (Level 3: growth control rate is greater than or equal to 40% and less than 60%)
- Setaria viridis (activity level) (Setaria viridis; Table 3, dose 7.5 g a.i./ha): 4 (Level 4: growth control rate is greater than or equal to 60% and less than 85%)
- Setaria viridis (activity level) (Setaria viridis; Table 3, dose 15 g a.i./ha): 5 (Level 5: growth control rate is above 85%)
- Setaria viridis (activity level) (Setaria viridis; Table 3, dose 30 g a.i./ha): 5 (Level 5: growth control rate is above 85%)
- Setaria viridis (activity level) (Setaria viridis; Table 3, dose 60 g a.i./ha): 5 (Level 5: growth control rate is above 85%)

SMILES: Cc1nnc(NC(=O)c2ccc(C(F)(F)F)c([S@@+]([O-])CC(C)F)c2F)o1 (stereo partly drawn) [1-404 (R-configuration)]
- Digitaria sanguinahs (activity level) (Digitaria sanguinalis; Table 3, dose 60 g a.i./ha): 5 (Level 5: growth control rate is above 85%)
- Echinochloa crusgali (activity level) (Echinochloa crusgalli; Table 3, dose 60 g a.i./ha): 5 (Level 5: growth control rate is above 85%)
- Setaria viridis (activity level) (Setaria viridis; Table 3, dose 60 g a.i./ha): 5 (Level 5: growth control rate is above 85%)

SMILES: Cc1nnc(NC(=O)c2ccc(C(F)(F)F)c([S@@+]([O-])CCCN)c2F)o1 [1-432 (R-configuration)]
- Digitaria sanguinahs (activity level) (Digitaria sanguinalis; Table 3, dose 500 g a.i./ha): 5 (Level 5: growth control rate is above 85%)
- Echinochloa crusgali (activity level) (Echinochloa crusgalli; Table 3, dose 500 g a.i./ha): 5 (Level 5: growth control rate is above 85%)
- Setaria viridis (activity level) (Setaria viridis; Table 3, dose 500 g a.i./ha): 5 (Level 5: growth control rate is above 85%)

SMILES: Cc1nnc(NC(=O)c2ccc(C(F)(F)F)c([S@+]([O-])CC(C)(C)C)c2F)o1 [1-392 (R-configuration)]
- Digitaria sanguinahs (activity level) (Digitaria sanguinalis; Table 3, dose 500 g a.i./ha): 5 (Level 5: growth control rate is above 85%)
- Echinochloa crusgali (activity level) (Echinochloa crusgalli; Table 3, dose 500 g a.i./ha): 5 (Level 5: growth control rate is above 85%)
- Setaria viridis (activity level) (Setaria viridis; Table 3, dose 500 g a.i./ha): 5 (Level 5: growth control rate is above 85%)

SMILES: COCC[S@+]([O-])c1c(C(F)(F)F)ccc(C(=O)Nc2nnc(C)o2)c1F [1-57 (R-configuration)]
- Digitaria sanguinahs (activity level) (Digitaria sanguinalis; Table 3, dose 125 g a.i./ha): 5 (Level 5: growth control rate is above 85%)
- Echinochloa crusgali (activity level) (Echinochloa crusgalli; Table 3, dose 125 g a.i./ha): 5 (Level 5: growth control rate is above 85%)
- Setaria viridis (activity level) (Setaria viridis; Table 3, dose 125 g a.i./ha): 5 (Level 5: growth control rate is above 85%)

Source: patent US20230041563A1, “N-(1,3,4-OXADIAZOL-2-YL)ARYLCARBOXAMIDES OR SALTS THEREOF, PREPARATION METHODS, HERBICIDAL COMPOSITIONS AND USES THEREOF” (priority 2018, published 2023)
